According to patent US20240398828A1, “HETERO-ATOM CONTAINING COMPOUNDS AND USES THEREOF” (Kumquat Biosciences Inc., priority 2021, published 2024):

Key:
[1] = biological target: T1, PTPN1 (i.e., PTP1B) (Homo sapiens, UniProt P18031); experiment: Phosphatase activity assay (DiFMUP substrate), PTP1B; assay type: biochemical; conditions: compounds binned ≤1 uM or >1 uM
T1 sequence (P18031 1-435): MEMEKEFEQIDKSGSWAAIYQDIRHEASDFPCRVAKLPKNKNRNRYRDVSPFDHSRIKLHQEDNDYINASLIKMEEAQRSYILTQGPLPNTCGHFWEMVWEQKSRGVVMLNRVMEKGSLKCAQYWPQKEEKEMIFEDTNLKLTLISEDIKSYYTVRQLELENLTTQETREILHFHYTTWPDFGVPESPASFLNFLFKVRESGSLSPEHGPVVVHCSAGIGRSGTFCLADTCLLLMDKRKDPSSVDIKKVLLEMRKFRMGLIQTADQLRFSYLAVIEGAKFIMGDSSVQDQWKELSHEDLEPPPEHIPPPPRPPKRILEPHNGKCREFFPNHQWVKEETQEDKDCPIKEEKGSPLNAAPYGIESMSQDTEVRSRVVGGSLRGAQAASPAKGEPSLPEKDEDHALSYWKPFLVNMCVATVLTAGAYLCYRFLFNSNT
How it was run: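 RT, HEPES pH 7.5 buffer with DTT/Tween-20. 10-point inhibitor series premixed ~2 min with enzyme (PTPN2 0.025 ng/ul). Start with DiFMUP at enzyme Km (~45 μM for PTPN2). Read DiFMU ex360/em450 continuously 15–30 min; initial rate vs concentration, 4-parameter fit → IC50.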

[2] = biological target: T2, PTPN2 (i.e., TC-PTP) (Homo sapiens, UniProt P17706); experiment: Phosphatase activity assay (DiFMUP substrate), PTPN2; assay type: biochemical; conditions: compounds binned ≤1 uM or >1 uM
T2 sequence (P17706 1-415): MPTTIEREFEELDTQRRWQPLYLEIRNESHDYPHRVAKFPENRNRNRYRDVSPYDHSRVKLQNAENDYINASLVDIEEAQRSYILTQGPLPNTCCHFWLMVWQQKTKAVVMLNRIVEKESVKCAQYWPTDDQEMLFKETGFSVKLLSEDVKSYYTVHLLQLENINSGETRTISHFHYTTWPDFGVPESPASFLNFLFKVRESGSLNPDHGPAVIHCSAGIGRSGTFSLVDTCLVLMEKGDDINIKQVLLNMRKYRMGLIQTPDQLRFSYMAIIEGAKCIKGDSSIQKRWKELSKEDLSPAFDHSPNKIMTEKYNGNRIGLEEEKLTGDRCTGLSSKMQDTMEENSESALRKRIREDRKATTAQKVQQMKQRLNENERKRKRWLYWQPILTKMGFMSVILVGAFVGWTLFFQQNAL
How it was run: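 Enzyme (e.g. PTPN2 0.025 ng/ul) mixed about 2 min with compound at 10 serial concentrations in 50 mM HEPES pH 7.5, 150 mM NaCl, 0.5 mM EDTA, 1 mM DTT, 0.001% Tween-20 at room temperature. DiFMUP added at each enzyme's Km (about 45 μM for PTPN2). DiFMU fluorescence (ex 360/em 450 nm) followed 15-30 min; IC50 from 4-parameter fit of rates.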

SMILES | IC50 [1] [nM] | IC50 [2] [nM]
Cc1nc(-c2ccc(O)c(N3CC(=O)NS3(=O)=O)c2F)cn1C [Compound 199, 5-(3-(1,2-dimethyl-1H-imidazol-4-yl)-2-fluoro-6-hydroxyphenyl)-1,2,5-thiadiazolidin-3-one 1,1-dioxide] | ≤ 1000 | ≤ 1000
O=C1CN(c2c(O)ccc(-c3cn(Cc4cccc(F)c4)cn3)c2F)S(=O)(=O)N1 [Compound 200, 5-(2-fluoro-3-(1-(3-fluorobenzyl)-1H-imidazol-4-yl)-6-hydroxyphenyl)-1,2,5-thiadiazolidin-3-one 1,1-dioxide] | ≤ 1000 | ≤ 1000
CC(C)CCOC1CCCN(c2cc(O)c(N3CC(=O)NS3(=O)=O)c(F)c2)C1 (stereo not drawn) [Compound 201, 5-(2-fluoro-6-hydroxy-4-(3-(isopentyloxy)piperidin-1-yl)phenyl)-1,2,5-thiadiazolidin-3-one 1,1-dioxide] | ≤ 1000 | ≤ 1000
CN1CCN(c2ccc(-c3ccc(O)c(N4CC(=O)NS4(=O)=O)c3F)cn2)CC1 [Compound 202, 5-(2-fluoro-6-hydroxy-3-(6-(4-methylpiperazin-1-yl)pyridin-3-yl)phenyl)-1,2,5-thiadiazolidin-3-one 1,1-dioxide] | ≤ 1000 | ≤ 1000
CC(C)CCn1cc(-c2ccc(O)c(N3CC(=O)NS3(=O)=O)c2F)cn1 [Compound 203, 5-(2-fluoro-6-hydroxy-3-(1-isopentyl-1H-pyrazol-4-yl)phenyl)-1,2,5-thiadiazolidin-3-one 1,1-dioxide] | ≤ 1000 | ≤ 1000
N#CCCn1cc(-c2ccc(O)c(N3CC(=O)NS3(=O)=O)c2F)cn1 [Compound 204, 3-(4-(3-(1,1-dioxido-4-oxo-1,2,5-thiadiazolidin-2-yl)-2-fluoro-4-hydroxyphenyl)-1H-pyrazol-1-yl)propanenitrile] | ≤ 1000 | ≤ 1000
O=C1CN(c2c(O)ccc(-c3cn(Cc4ccccc4)nn3)c2F)S(=O)(=O)N1 [Compound 205, 5-(3-(1-benzyl-1H-1,2,3-triazol-4-yl)-2-fluoro-6-hydroxyphenyl)-1,2,5-thiadiazolidin-3-one 1,1-dioxide] | ≤ 1000 | ≤ 1000
COc1cc(-c2ccc(O)c(N3CC(=O)NS3(=O)=O)c2F)c(F)cn1 [Compound 206, 5-(2-fluoro-3-(5-fluoro-2-methoxypyridin-4-yl)-6-hydroxyphenyl)-1,2,5-thiadiazolidin-3-one 1,1-dioxide] | ≤ 1000 | ≤ 1000
O=C1CN(c2c(O)ccc(-c3cnn(CCc4ccccc4)c3)c2F)S(=O)(=O)N1 [Compound 207, 5-(2-fluoro-6-hydroxy-3-(1-phenethyl-1H-pyrazol-4-yl)phenyl)-1,2,5-thiadiazolidin-3-one 1,1-dioxide] | ≤ 1000 | ≤ 1000
CN(C)c1ccc(-c2ccc(O)c(N3CC(=O)NS3(=O)=O)c2F)cn1 [Compound 208, 5-(3-(6-(dimethylamino)pyridin-3-yl)-2-fluoro-6-hydroxyphenyl)-1,2,5-thiadiazolidin-3-one 1,1-dioxide] | ≤ 1000 | ≤ 1000
O=C1CN(c2c(O)ccc(-c3cn(-c4ccc(F)cc4)cn3)c2F)S(=O)(=O)N1 [Compound 209, 5-(2-fluoro-3-(1-(4-fluorophenyl)-1H-imidazol-4-yl)-6-hydroxyphenyl)-1,2,5-thiadiazolidin-3-one 1,1-dioxide] | ≤ 1000 | ≤ 1000
CC(C)CCN1CCC=C(c2ccc(O)c(N3CC(=O)NS3(=O)=O)c2F)C1 [Compound 210, 5-(2-fluoro-6-hydroxy-3-(1-isopentyl-1,2,5,6-tetrahydropyridin-3-yl)phenyl)-1,2,5-thiadiazolidin-3-one 1,1-dioxide] | ≤ 1000 | ≤ 1000
O=C1CN(c2c(O)ccc(-c3cnn(Cc4ccc(F)c(F)c4)c3)c2F)S(=O)(=O)N1 [Compound 211, 5-(3-(1-(3,4-difluorobenzyl)-1H-pyrazol-4-yl)-2-fluoro-6-hydroxyphenyl)-1,2,5-thiadiazolidin-3-one 1,1-dioxide] | ≤ 1000 | ≤ 1000
O=C1CN(c2c(O)ccc(-c3cnn(Cc4ccccc4)c3)c2F)S(=O)(=O)N1 [Compound 212, 5-(3-(1-benzyl-1H-pyrazol-4-yl)-2-fluoro-6-hydroxyphenyl)-1,2,5-thiadiazolidin-3-one 1,1-dioxide] | ≤ 1000 | ≤ 1000
COc1ccc(-c2ccc(O)c(N3CC(=O)NS3(=O)=O)c2F)cn1 [Compound 213, 5-(2-fluoro-6-hydroxy-3-(6-methoxypyridin-3-yl)phenyl)-1,2,5-thiadiazolidin-3-one 1,1-dioxide] | ≤ 1000 | ≤ 1000
O=C1CN(c2c(O)ccc(-c3cnn(C4CCOCC4)c3)c2F)S(=O)(=O)N1 [Compound 214, 5-(2-fluoro-6-hydroxy-3-(1-(tetrahydro-2H-pyran-4-yl)-1H-pyrazol-4-yl)phenyl)-1,2,5-thiadiazolidin-3-one 1,1-dioxide] | ≤ 1000 | ≤ 1000
CCCCNc1ccc(-c2ccc(O)c(N3CC(=O)NS3(=O)=O)c2F)cn1 [Compound 215, 5-(3-(6-(butylamino)pyridin-3-yl)-2-fluoro-6-hydroxyphenyl)-1,2,5-thiadiazolidin-3-one 1,1-dioxide] | ≤ 1000 | ≤ 1000
CC(C)CCn1cnc(-c2ccc(O)c(N3CC(=O)NS3(=O)=O)c2F)c1 [Compound 216, 5-(2-fluoro-6-hydroxy-3-(1-isopentyl-1H-imidazol-4-yl)phenyl)-1,2,5-thiadiazolidin-3-one 1,1-dioxide] | ≤ 1000 | ≤ 1000
O=C1CN(c2c(O)ccc(-c3cnn(Cc4ccc(C(F)(F)F)cc4)c3)c2F)S(=O)(=O)N1 [Compound 217, 5-(2-fluoro-6-hydroxy-3-(1-(4-(trifluoromethyl)benzyl)-1H-pyrazol-4-yl)phenyl)-1,2,5-thiadiazolidin-3-one 1,1-dioxide] | ≤ 1000 | ≤ 1000
O=C1CN(c2c(O)ccc(-c3cc(O)cc4ccccc34)c2F)S(=O)(=O)N1 [Compound 218, 5-(2-fluoro-6-hydroxy-3-(3-hydroxynaphthalen-1-yl)phenyl)-1,2,5-thiadiazolidin-3-one 1,1-dioxide] | > 1000 | > 1000
CC(C)CCn1cc(-c2ccc(O)c(N3CC(=O)NS3(=O)=O)c2F)nn1 [Compound 219, 5-(2-fluoro-6-hydroxy-3-(1-isopentyl-1H-1,2,3-triazol-4-yl)phenyl)-1,2,5-thiadiazolidin-3-one 1,1-dioxide] | ≤ 1000 | ≤ 1000
O=C1CN(c2c(O)ccc(-c3ccc(=O)n(Cc4ccccc4)c3)c2F)S(=O)(=O)N1 [Compound 220, 5-(3-(1-benzyl-6-oxo-1,6-dihydropyridin-3-yl)-2-fluoro-6-hydroxyphenyl)-1,2,5-thiadiazolidin-3-one 1,1-dioxide] | ≤ 1000 | ≤ 1000
CC(C)CCn1cc(-c2cc(O)cc(N3CC(=O)NS3(=O)=O)c2F)cn1 [Compound 221, 5-(2-fluoro-5-hydroxy-3-(1-isopentyl-1H-pyrazol-4-yl)phenyl)-1,2,5-thiadiazolidin-3-one 1,1-dioxide] | > 1000 | > 1000
O=C1CN(c2c(O)ccc(-c3cnn(Cc4cccc(F)c4)c3)c2F)S(=O)(=O)N1 [Compound 222, 5-(2-fluoro-3-(1-(3-fluorobenzyl)-1H-pyrazol-4-yl)-6-hydroxyphenyl)-1,2,5-thiadiazolidin-3-one 1,1-dioxide] | ≤ 1000 | ≤ 1000
O=C1CN(c2c(O)ccc(-c3cnn(Cc4cccc(Cl)c4)c3)c2F)S(=O)(=O)N1 [Compound 223, 5-(3-(1-(3-chlorobenzyl)-1H-pyrazol-4-yl)-2-fluoro-6-hydroxyphenyl)-1,2,5-thiadiazolidin-3-one 1,1-dioxide] | ≤ 1000 | ≤ 1000
N#Cc1ccc(Cn2cc(-c3ccc(O)c(N4CC(=O)NS4(=O)=O)c3F)cn2)cc1 [Compound 224, 4-((4-(3-(1,1-dioxido-4-oxo-1,2,5-thiadiazolidin-2-yl)-2-fluoro-4-hydroxyphenyl)-1H-pyrazol-1-yl)methyl)benzonitrile] | ≤ 1000 | ≤ 1000
CN1CCC(Nc2cccc(-c3ccc(O)c(N4CC(=O)NS4(=O)=O)c3F)c2)CC1 [Compound 225, 5-(2-fluoro-4-hydroxy-3′-((1-methylpiperidin-4-yl)amino)-[1,1′-biphenyl]-3-yl)-1,2,5-thiadiazolidin-3-one 1,1-dioxide] | ≤ 1000 | ≤ 1000
